# Measurements: PubChem BioAssay AID1320 (NMMLSC, 2008)
# Activity calls are given as the source filed them. How the calls were made is not given here.
# Target: Bcl-2-related protein A1 (Homo sapiens) (UniProt Q16548)
# Experiment: Bfl-1/Bim complex disruptors – biochemical, multiplexed, bead-based flow cytometry, dose response (AID 1320); on percent span (inhibition): test concentration not given here
# Conditions: Bim peptide-Bfl-1 binding, fluorescence
# Chain of Bcl-2-related protein A1 (Homo sapiens) (Q16548 whole entry, looked up): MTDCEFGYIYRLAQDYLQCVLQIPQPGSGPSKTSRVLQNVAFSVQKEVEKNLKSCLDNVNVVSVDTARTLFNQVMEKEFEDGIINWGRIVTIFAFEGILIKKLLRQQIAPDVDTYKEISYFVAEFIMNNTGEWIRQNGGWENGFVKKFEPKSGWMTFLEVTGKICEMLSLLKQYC
row,Compound,EC50
1,CC1CC2=C(NC(=S)NC2c2cccc(F)c2)/C(=C/c2cccc(F)c2)C1 (centres undefined),inactive
2,Clc1ccc2c(N/N=C/c3ccccc3Br)ccnc2c1,inactive
3,CCC(=O)N(CC)C1=C(O)c2ccccc2C(=O)C1=O,80 nM

# Same assay, conditions: Bim peptide-Bfl-1 binding, fluorescence, hits give high values
row,Compound,percent span (inhibition)
1,COc1c(F)c(F)c(C(=O)Nc2ccccc2N2CCN(C(=O)C(C)C)CC2)c(F)c1F,inactive
2,O=C(Nc1nnc(C2CC2)s1)C1Cc2ccccc2CN1S(=O)(=O)c1ccccc1F (centres undefined),inactive
3,CC(NCc1ccc(-c2ccccc2)cc1)C(O)c1ccccc1 (centres undefined),inactive
4,O=C(NCCCN1CCN(CCCNC(=O)c2cc([N+](=O)[O-])ccc2Cl)CC1)c1cc([N+](=O)[O-])ccc1Cl,inactive
5,CCOc1ccc(N2C(=O)C(Cl)=C(Nc3ccccc3O)C2=O)cc1,inactive
6,COc1ccc(NC(=O)c2ccco2)cc1NC(=O)c1ccco1,inactive
7,CCOC(=O)c1nc(Nc2ccc(C(=O)OC)cc2)c2ccccc2n1,inactive
8,CCOC(=O)c1[nH]cnc1C(=O)NC(C)C,inactive
9,COC(=O)c1c(NC(=O)COc2ncnc3ccccc23)sc(C)c1C,inactive
10,Cn1c(N)c(C(=O)COC(=O)c2cncc(Br)c2)c(=O)n(C)c1=O,inactive
11,CN(C)c1ccc(C(=O)/C=C/c2ccc(Br)cc2)cc1,inactive
12,Cn1c(=O)c2cc(S(=O)(=O)Nc3cc(C(=O)O)cc(C(=O)O)c3)ccc2n(C)c1=O,inactive
13,Cc1ccc(-n2nc(C)c(C(=O)O)n2)c(C)c1,inactive
14,COc1cccc2c(SCC(=O)N/N=C/c3ccc(O)cc3O)cc(C)nc12,inactive
15,CCOC(=O)c1c2c3c(c(Cl)ccc3[nH]c1=O)C(=O)c1ccccc1-2,inactive
16,O=C(CSc1ccc2nnc(-c3ccncc3)n2n1)Nc1nccs1,inactive
17,CCOC(=O)c1nn(-c2ccccc2)c(C#N)c1N,inactive
18,Cn1c(=O)[nH]c(=O)c2c1nc(N1CCOCC1)n2CCSc1nc2ccccc2[nH]1,inactive
19,CC1CCN(C2(O)C(=O)Nc3ccc(Br)cc32)CC1 (centres undefined),inactive
20,CCn1c(SCC(=O)Nc2ccc(C)cc2)nnc1-c1ccc(O)cc1,inactive
21,CCc1cccc(CC)c1NC(=S)N1CCn2cccc2C1c1cccnc1 (centres undefined),inactive
22,Cc1ccccc1/C=N/Nc1ccnc2cc(Cl)ccc12,inactive
23,CCNC(=S)Nc1ccc(OCC)cc1,inactive
24,O=C(COC(=O)CCCN=C1NS(=O)(=O)c2ccccc21)NC(=O)NC1CCCC1,inactive

row,Compound,percent span (inhibition)
1,O=C(Nc1cccc(Cl)c1)Nc1ccnc(-c2cccnc2)n1,inactive
2,OCCC1CN(Cc2nc3c(s2)CCCC3)CCN1Cc1ccsc1 (centres undefined),inactive
3,CNC(=O)CC1C(=O)N(Cc2ccccc2)C(=S)N1NC(=O)c1cccc(F)c1 (centres undefined),inactive
4,CN=c1scc(C)n1/N=C/c1ccc(O)c(O)c1O,inactive
5,Cc1ccc(Nc2nc(-c3c(C)nc4ncccn34)cs2)cc1,inactive
6,Cc1ccc(Nc2nc(-c3ccccc3)c(CC(=O)O)s2)cc1,inactive
7,COC(=O)c1sc(NC(=O)c2ccc(Cn3cc(Cl)cn3)o2)c(C#N)c1C,inactive
8,OC(CNC1CCCCC1)COCCOc1ccc(Br)cc1 (centres undefined),inactive
9,Cc1ccc(Nc2nc(CSc3nnc(-c4cccnc4)n3-c3ccccc3C)cs2)cc1,inactive
10,CCNCc1cc(Br)c(OCC(=O)Nc2ccccc2)c(OC)c1,inactive
11,CCN(CC)c1ccc(NC(=O)c2ccccc2)cc1S(=O)(=O)Nc1ccccc1OC,inactive
12,Cc1nc(=S)c2ccccc2[nH]1,inactive
13,CC1Nc2ccccc2C(=O)N1NS(=O)(=O)c1ccccc1 (centres undefined),inactive
14,COc1ccc(C2CN(C)CC2C(=O)c2ccc(F)cc2)cc1Cl (centres undefined),inactive
15,COc1cccc(/C=N/Nc2nn3cnnc3c3ccccc23)c1O,inactive
16,COc1ccc(S(=O)(=O)NCCOc2cccc3cccnc23)cc1OC,inactive
17,Cc1ccc(N=C2NC(=O)/C(=C/C=C/c3ccco3)S2)cc1,inactive
18,CS(=O)(=O)NN1C(=O)c2ccccc2NC1c1cccs1 (centres undefined),inactive
19,CCN1CCN(c2ccc(NC(=O)c3ccc4c(c3)[nH]c(=O)n4Cc3ccc(OC)cc3)cc2)CC1,inactive
20,CN(C)C(=O)N1CCC(C(=O)NC2CCCCCCC2)CC1,inactive
21,S=C(Nc1ccccc1)N1CCn2cccc2C1c1cccnc1 (centres undefined),inactive
22,COc1cccc2c(SCC(=O)N/N=C/c3ccccc3)cc(C)nc12,inactive
23,COc1cc(/C=C2/NC(=O)N(Cc3ccccc3F)C2=O)ccc1O,inactive
24,Cc1cc(C)c2c(N)c3cccc(C)c3nc2n1,inactive

row,Compound,percent span (inhibition)
1,CNC(=S)N(Cc1cccs1)Cc1cc2ccc(OC)cc2[nH]c1=O,inactive
2,CSc1n[nH]c2nc3c(c(=O)n12)C1(CCCC1)Cc1ccccc1-3,inactive
3,Cc1nonc1NC(=O)CSc1nnc(-c2ccoc2C)n1C,inactive
4,O=C(CSc1nc2ccsc2c(=O)n1Cc1ccc(C(=O)O)cc1)NCC1CCCO1 (centres undefined),inactive
5,Cc1ccc(-c2nnc(Cc3ccc(Cl)cc3)o2)cc1,inactive
6,CN(C(=O)NC1CCCCC1)c1ccccc1,inactive
7,CC(=O)N1CCN(C(=O)c2ccc(-n3c(C)ccc3C)cc2)CC1,inactive
8,COCCCNc1nc(=S)[nH]c2cc(OC)c(OC)cc12,inactive
9,Cc1ccc(/C=N/NC(=O)CSc2nnc(-c3ccc(Cl)cc3)n2-c2ccccc2)o1,inactive
10,O=C(/C=C\c1ccc(-c2ccccc2)o1)c1ccccc1,inactive
11,Cc1cc[n+]2cc(-c3cccc([N+](=O)[O-])c3)c(-c3cccc([N+](=O)[O-])c3)cc2c1,inactive
12,Cn1c(=O)c2c(nc(NCCO)n2CCc2ccccc2)n(C)c1=O,inactive
13,COc1cc(NC(=S)NCCCO)c(OC)cc1Cl,inactive
14,O=C(OCc1nc2ccccc2[nH]1)C12CC3CC(CC(C3)C1)C2,inactive
15,CCN1CCN(c2ccc(NC(=O)c3cccc4ncccc34)cc2)CC1,inactive
16,S=C(NCCc1ccccc1)NCCc1ccccc1,inactive
17,CC1C=CCC2C(=O)N(c3ccc(OC(=O)c4cccs4)cc3)C(=O)C12 (centres undefined),inactive
18,CCN1CCN(c2cc(C)c3cc(NC(=S)N4CCN(c5ccccc5)CC4)ccc3n2)CC1,inactive
19,Cc1ccc(OCc2cn3cccnc3n2)cc1,inactive
20,COc1cc2[nH]c(=S)nc(NCC3CCCO3)c2cc1OC (centres undefined),inactive
21,CC(C)(C)C1CCC(=NNC(=O)c2cc3c(s2)CCCC3)CC1 (centres undefined),inactive
22,COc1ccc(-n2c(SCC(=O)Nc3ccc(C(=O)O)cc3)nnc2-c2cccs2)cc1,inactive
23,CC1(C)Cc2c(ccc3ccccc23)/C(=C/C(=O)N2CCCCC2)N1,inactive
24,CCOc1cc(S(=O)(=O)N2CCCCC2)ccc1F,inactive

row,Compound,percent span (inhibition)
1,CCOc1cc(NC(=S)NC)c(OCC)cc1NC(=O)c1ccc(OC)cc1,inactive
2,O=C(C1=C(Nc2ccccc2)c2ccccc2S(=O)(=O)N1)c1ccccc1,inactive
3,O=S1(=O)N=C(N(CCO)/N=C/C=C/c2ccccc2)c2ccccc21,inactive
4,Cc1[nH]c2ccccc2c1C(=O)COC(=O)c1c(-c2c(F)cccc2Cl)noc1C,inactive
5,O=C(CNC(=O)c1ccco1)NCC(=O)OCc1ccccc1Br,inactive
6,CCOC(=O)c1nc(Nc2ccc(Nc3ccccc3)cc2)c2ccccc2n1,inactive
7,OC(COc1ccc2ccccc2c1)CN1CCCC1 (centres undefined),inactive
8,CC1(C)CC(=O)C(C=NCCN2CCN(CCc3ccccc3)CC2)=C(O)C1,inactive
9,O=[N+]([O-])c1ccc(-c2cn(-c3ccc(Cl)cc3)c(=S)[nH]2)cc1,inactive
10,COc1cccc2c(SCC(=O)N/N=C/c3ccc(O)c(O)c3)cc(C)nc12,inactive
11,COc1cccc(/C=N/Nc2nn3cnnc3c3ccccc23)c1,inactive
12,CN(CCc1ccccn1)C(=O)CCC1CCCN(C(=O)NC2CCCCC2)C1 (centres undefined),inactive
13,CC1(C(=O)N(CC(=O)NC2CCCC2)Cc2ccco2)CC(=O)N=C2C=CC=CN21 (centres undefined),inactive
14,CCOc1cc(/C=N/NC(=O)c2cccs2)cc([N+](=O)[O-])c1O,inactive
15,CN(CC(=O)O/N=C(\N)c1ccc([N+](=O)[O-])cc1)S(=O)(=O)c1ccccc1,inactive
16,COC(=O)C1C2c3ccccc3OC1(C)N=c1s/c(=C/c3cnn(C)c3C)c(=O)n12 (centres undefined),inactive
17,Clc1ccc(N=c2ssnc2Cl)nc1,inactive
18,O=C(c1cc(=O)c2ccccc2o1)N1CCN(c2ccccc2F)CC1,inactive
19,Fc1cccc(Nc2nc(-c3ccncc3)nc3ccccc23)c1,inactive
20,O=C1C=C(Nc2ccccc2)C(=O)c2ccccc21,inactive
21,COC(=O)c1ccc(/C=N/NC(=O)CC(=O)NCc2cccnc2)cc1,inactive
22,Cc1noc(C)c1CN1C(=O)NC(Cc2ccccc2)(Cc2ccccc2)C1=O,inactive
23,C/C(=N\NC(=O)Cc1cccn1C)c1ccc2ccccc2c1,inactive
24,Nc1ccc(N2CCN(CCCCN3C(=O)C4CCCN4C3=O)CC2)cc1 (centres undefined),inactive
